{"source": "patent US20250197372A1", "about": "(priority 2020, published 2025)", "data": [{"target": "T1, recombinant alpha-glucosidase I (human full-length glucosidase I, Glu 1) (Homo sapiens, UniProt Q13724)", "T1 construct": "6-His (C); made in house; host or cells: HEK-293T cells transduced with BacMam virus (virus raised in Sf9)", "T1 sequence (Q13724 1-837)": "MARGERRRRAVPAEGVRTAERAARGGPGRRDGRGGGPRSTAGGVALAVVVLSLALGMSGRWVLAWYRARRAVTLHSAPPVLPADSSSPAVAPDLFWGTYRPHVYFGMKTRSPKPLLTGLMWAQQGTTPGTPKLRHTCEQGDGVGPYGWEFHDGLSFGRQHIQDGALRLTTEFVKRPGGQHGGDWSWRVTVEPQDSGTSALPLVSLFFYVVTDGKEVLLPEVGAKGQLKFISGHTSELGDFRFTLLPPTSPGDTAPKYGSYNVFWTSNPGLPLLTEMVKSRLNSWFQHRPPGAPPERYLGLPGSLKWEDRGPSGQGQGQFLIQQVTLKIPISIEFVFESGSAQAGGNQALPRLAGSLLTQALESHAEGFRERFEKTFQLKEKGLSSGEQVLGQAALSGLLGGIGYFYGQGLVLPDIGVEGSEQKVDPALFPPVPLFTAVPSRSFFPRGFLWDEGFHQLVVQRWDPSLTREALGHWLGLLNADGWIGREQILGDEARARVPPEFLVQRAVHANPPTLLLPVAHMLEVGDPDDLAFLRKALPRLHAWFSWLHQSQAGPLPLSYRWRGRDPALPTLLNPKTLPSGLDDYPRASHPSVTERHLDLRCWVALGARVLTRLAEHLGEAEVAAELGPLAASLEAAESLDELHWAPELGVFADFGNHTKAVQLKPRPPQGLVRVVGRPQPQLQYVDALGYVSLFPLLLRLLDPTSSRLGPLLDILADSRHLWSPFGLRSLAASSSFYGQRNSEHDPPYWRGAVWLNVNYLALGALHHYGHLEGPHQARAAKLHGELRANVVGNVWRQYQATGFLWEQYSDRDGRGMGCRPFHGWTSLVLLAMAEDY", "assay": "Alpha-glucosidase I assay (Amplex Red glucose detection, synthetic trisaccharide substrate)", "format": "biochemical", "details": "Glucosidase 1; read-out: Glu 1 IC50", "how_it_was_run": "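Compound dilution series incubated 60 min at 37° C with recombinant His-tagged human glucosidase I ([…]), after which trisaccharide substrate analog was added for 90 min at 37° C. Reaction quenched with 1.5M Tris pH 8; D-glucose detected by Amplex Red fluorescence, 560/590 nm. 4-PL curve fit of percent inhibition gave IC50.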", "units": {"IC50": "nM"}, "values": [{"smiles": "Nc1ccc(NCCCCCCCCN2C[C@H](O)[C@@H](O)[C@H](O)[C@H]2CO)c([N+](=O)[O-])c1Cl", "note": "[Compound 1277, (2R,3R,4R,5S)-1-{8-[(4-amino-3-chloro-2-nitrophenyl)amino]octyl} 2-(hydroxymethyl)piperidine-3,4,5-triol]", "IC50": 166}, {"smiles": "CN(C)Cc1ccc(NCCCCCCN2C[C@H](O)[C@@H](O)[C@H](O)[C@H]2CO)c(F)c1", "note": "[Compound 1236, (2R,3R,4R,5S)-1-[6-({4-[(dimethylamino)methyl]-2-fluorophenyl}amino)hexyl]-2-(hydroxymethyl)piperidine-3,4,5-triol]", "IC50": 296}, {"smiles": "CS(=O)(=O)c1cc(NCc2cccc(CN3C[C@H](O)[C@@H](O)[C@H](O)[C@H]3CO)c2)cc(N2CCOCC2)c1", "note": "[Compound 1036, (2R,3R,4R,5S)-2-(hydroxymethyl)-1-{[3-({[3-methanesulfonyl-5-(morpholin-4-yl)phenyl]amino}methyl)phenyl]methyl}piperidine-3,4,5-triol]", "IC50": 30}, {"smiles": "OC[C@@H]1[C@@H](O)[C@H](O)[C@@H](O)CN1CCCCCCNc1ccc(-c2ncccn2)cc1F", "note": "[Compound 1229, (2R,3R,4R,5S)-1-(6-{[2-fluoro-4-(pyrimidin-2-yl)phenyl]amino}hexyl)-2-(hydroxymethyl)piperidine-3,4,5-triol]", "IC50": 94}, {"smiles": "N#Cc1cc(Br)cc(NCc2cccc(CN3C[C@H](O)[C@@H](O)[C@H](O)[C@H]3CO)c2)c1", "note": "[Compound 1023, 3-bromo-5-{[(3-{[(2R,3R,4R,5S)-3,4,5-trihydroxy-2-(hydroxymethyl)piperidin-1-yl]methyl}phenyl)methyl]amino}benzonitrile]", "IC50": 15}, {"smiles": "[N-]=[N+]=Nc1ccc(NCCNS(=O)(=O)NCCN2C[C@H](O)[C@@H](O)[C@H](O)[C@H]2CO)c([N+](=O)[O-])c1", "note": "[Compound 1275, (2R,3R,4R,5S)-1-{2-[({2-[(4-azido-2-nitrophenyl)amino]ethyl}sulfamoyl)amino]ethyl}-2-(hydroxymethyl)piperidine-3,4,5-triol]", "IC50": 4060}, {"smiles": "Cc1cc(NCc2ccc(CN3C[C@H](O)[C@@H](O)[C@H](O)[C@H]3CO)cc2)cc(-c2ccco2)c1", "note": "[Compound 1317, (2R,3R,4R,5S)-1-{[4-({[3-(furan-2-yl)-5-methylphenyl]amino}methyl)phenyl]methyl}-2-(hydroxymethyl)piperidine-3,4,5-triol]", "IC50": "< 1"}, {"smiles": "[N-]=[N+]=Nc1ccc(NCCOC(=O)NCCN2C[C@H](O)[C@@H](O)[C@H](O)[C@H]2CO)c([N+](=O)[O-])c1", "note": "[Compound 1268, 2-[(4-azido-2-nitrophenyl)amino]ethyl N-{2-[(2R,3R,4R,5S)-3,4,5-trihydroxy-2-(hydroxymethyl)piperidin-1-yl]ethyl}carbamate]", "IC50": 1990}, {"smiles": "OC[C@@H]1[C@@H](O)[C@H](O)[C@@H](O)CN1Cc1cccc(CNc2ccc(Br)cc2)c1", "note": "[Compound 1027, (2R,3R,4R,5S)-1-[(3-{[(4-bromophenyl)amino]methyl}phenyl)methyl]-2-(hydroxymethyl)piperidine-3,4,5-triol]", "IC50": 22}, {"smiles": "N#Cc1cc(-c2ncccn2)ccc1NCCCCCCN1C[C@H](O)[C@@H](O)[C@H](O)[C@H]1CO", "note": "[Compound 1256, 5-(pyrimidin-2-yl)-2-({6-[(2R,3R,4R,5S)-3,4,5-trihydroxy-2-(hydroxymethyl)piperidin-1-yl]hexyl}amino)benzonitrile]", "IC50": 90}, {"smiles": "COc1ccc(-c2ccc(CCCN3C[C@H](O)[C@@H](O)[C@H](O)[C@H]3CO)cc2)cc1", "note": "[Compound 1305, (2R,3R,4R,5S)-2-(hydroxymethyl)-1-(3-{4′-methoxy-[1,1′-biphenyl]-4-yl}propyl)piperidine-3,4,5-triol]", "IC50": 2830}, {"smiles": "[N-]=[N+]=Nc1ccc(NCCc2ccccc2CCN2C[C@H](O)[C@@H](O)[C@H](O)[C@H]2CO)c([N+](=O)[O-])c1", "note": "[Compound 1249]", "IC50": 2450}, {"smiles": "O=[N+]([O-])c1cc(Br)ccc1NCc1ccc(CN2C[C@H](O)[C@@H](O)[C@H](O)[C@H]2CO)cc1", "note": "[Compound 1030, (2R,3R,4R,5S)-1-[(4-{[(4-bromo-2-nitrophenyl)amino]methyl}phenyl)methyl]-2-(hydroxymethyl)piperidine-3,4,5-triol]", "IC50": "< 1"}, {"smiles": "Cc1cc(NCc2ccc(CN3C[C@H](O)[C@@H](O)[C@H](O)[C@H]3CO)cc2)cc(-n2nccn2)c1", "note": "[Compound 1316, (2R,3R,4R,5S)-2-(hydroxymethyl)-1-{[4-({[3-methyl-5-(2H-1,2,3-triazol-2-yl)phenyl]amino}methyl)phenyl]methyl}piperidine-3,4,5-triol]", "IC50": 16}, {"smiles": "CN(C)Cc1ccc(NCCCCCCN2C[C@H](O)[C@@H](O)[C@H](O)[C@H]2CO)c(C#N)c1", "note": "[Compound 1257, 5-[(dimethylamino)methyl]-2-({6-[(2R,3R,4R,5S)-3,4,5-trihydroxy-2-(hydroxymethyl)piperidin-1-yl]hexyl}amino)benzonitrile]", "IC50": 115}, {"smiles": "NC(=O)CCN(CCNc1ccc(-c2ncccn2)cc1[N+](=O)[O-])CCN1C[C@H](O)[C@@H](O)[C@H](O)[C@H]1CO", "note": "[Compound 1226, 3-[(2-{[2-nitro-4-(pyrimidin-2-yl)phenyl]amino}ethyl)({2-[(2R,3R,4R,5S)-3,4,5-trihydroxy-2-(hydroxymethyl)piperidin-1-yl]ethyl})amino]propanamide]", "IC50": 9530}, {"smiles": "[N-]=[N+]=Nc1ccc(NCCN2CCN(CCN3C[C@H](O)[C@@H](O)[C@H](O)[C@H]3CO)CC2)c([N+](=O)[O-])c1", "note": "[Compound 1273, (2R,3R,4R,5S)-1-[2-(4-{2-[(4-azido-2-nitrophenyl)amino]ethyl}piperazin-1-yl)ethyl]-2-(hydroxymethyl)piperidine-3,4,5-triol]", "IC50": 13000}, {"smiles": "O=[N+]([O-])c1cc(Br)ccc1NCc1cccc(CN2C[C@H](O)[C@@H](O)[C@H](O)[C@H]2CO)c1", "note": "[Compound 1029, (2R,3R,4R,5S)-1-[(3-{[(4-bromo-2-nitrophenyl)-amino]methyl}phenyl)methyl]-2-(hydroxymethyl)piperidine-3,4,5-triol]", "IC50": 8}, {"smiles": "COc1ccc(-c2ccc(CN3C[C@H](O)[C@@H](O)[C@H](O)[C@H]3CO)cc2)cc1", "note": "[Compound 1306, (2R,3R,4R,5S)-2-(hydroxymethyl)-1-({4′-methoxy-[1,1′-biphenyl]-4-yl}methyl)piperidine-3,4,5-triol]", "IC50": 745}, {"smiles": "COc1cc(-c2ncccn2)ccc1NCCCCCCN1C[C@H](O)[C@@H](O)[C@H](O)[C@H]1CO", "note": "[Compound 1231, (2R,3R,4R,5S)-2-(hydroxymethyl)-1-(6-{[2-methoxy-4-(pyrimidin-2-yl)phenyl]amino}hexyl)piperidine-3,4,5-triol]", "IC50": 187}, {"smiles": "OC[C@@H]1[C@@H](O)[C@H](O)[C@@H](O)CN1Cc1cccc(CNc2cc(-c3ncccn3)cc(C3CC3)c2)n1", "note": "[Compound 1333, (2R,3R,4R,5S)-1-{[6-({[3-cyclopropyl-5-(pyrimidin-2-yl)phenyl]amino}methyl)pyridin-2-yl]methyl}-2-(hydroxymethyl)piperidine-3,4,5-triol]", "IC50": 4530}, {"smiles": "CS(=O)(=O)c1cc(Br)cc(NCc2ccc(CN3C[C@H](O)[C@@H](O)[C@H](O)[C@H]3CO)cc2)c1", "note": "[Compound 1025, (2R,3R,4R,5S)-1-[(4-{[(3-bromo-5-methanesulfonylphenyl)amino]methyl}phenyl)methyl]-2-(hydroxymethyl)piperidine-3,4,5-triol]", "IC50": 21}]}]}
